Test system: SH-Ratte
Assay: Blood pressure lowering in conscious spontaneously hypertensive rats (tail cuff, oral dosing)
Assay type: in vivo
Conditions: Rattus norvegicus; SH-Ratte: Blutdrucksenkung >15 mm; intragastral ("oral") in Tylosesuspension; read-out: Grenzdosis
Source text: Die Substanzen wurden an der wachen Ratte auf ihre blutdrucksenkende Wirkung hin untersucht. An wachen Ratten mit genetisch bedingtem Hochdruck ("spontan hypertone Ratten" des Okamoto-Stammes) wird der arterielle Blutdruck mit der "Schwanz-Manchette" in definierten Zeitabständen nach Substanzgabe unblutig gemessen. Die zu prüfenden Substanzen werden aufgeschwemmt in einer Tylosesuspension intragastral ("oral") per Schlundsonde in verschiedenen Dosen appliziert. Die erfindungsgemäßen Verbindungen senken den arteriellen Blutdruck der Hochdruckratten in klinisch relevanter Dosierung.

| Structure (SMILES) | minimal effective dose |
| --- | --- |
| CC(=O)Oc1ccccc1C(=O)OCCOC(=O)C1=C(C)NC(C)=C(C(=O)OC(C)C)C1c1ccccc1[N+](=O)[O-] (stereo not drawn) [Beispiel 2] | 30 mg/kg |
| CC(=O)Oc1ccccc1C(=O)OCCOC(=O)C1=C(C)NC(C)=C(C(=O)OC(C)C)C1c1ccccc1Cl (stereo not drawn) [Beispiel 4] | 30 mg/kg |
| COC(=O)C1=C(C)NC(C)=C(C(=O)OCCOC(=O)c2ccccc2OC(C)=O)C1c1ccccc1C(F)(F)F (stereo not drawn) [Beispiel 1, 5-[2-(2-Acetoxybenzoyloxy)ethoxycarbonyl]-2,6-dimethyl-4-(2-trifluormethylphenyl)-1,4-dihydropyridin-3-carbonsäuremethylester] | 10 mg/kg |
| COC(=O)C1=C(C)NC(C)=C(C(=O)OCCOC(=O)c2ccccc2OC(C)=O)C1c1cccc(Cl)c1Cl (stereo not drawn) [Beispiel 6, 5-[2-(2-Acetoxybenzoyloxy)ethoxycarbonyl]-2,6-dimethyl-4-(2,3-dichlorphenyl)-1,4-dihydropyridin-3-carbonsäuremethylester] | 3 mg/kg |
| CC(=O)Oc1ccccc1C(=O)OCCOC(=O)C1=C(C)NC(C)=C(C(=O)OC(C)C)C1c1ccccc1C(F)(F)F (stereo not drawn) [Beispiel 3] | 10 mg/kg |
| CCOC(=O)C1=C(C)NC(C)=C(C(=O)OCCOC(=O)c2ccccc2OC(C)=O)C1c1ccccc1C(F)(F)F (stereo not drawn) [Beispiel 5, 5-[2-(2-Acetoxybenzoyloxy)ethoxycarbonyl]-2,6-dimethyl-4-(2-trifluormethylphenyl)-1,4-dihydropyridin-3-carbonsäureethylester] | 10 mg/kg |
